# In patent US9586945B2, “Aminochromane, aminothiochromane and amino-1,2,3,4-tetrahydroquinoline derivatives, pharmaceutical compositions containing them, and their use in therapy” (AbbVie Deutschland GmbH & Co. KG, priority 2013, dated 2017):
# pKi: −log10 of the molar value.
# Target: human GlyT1c transporter (Homo sapiens (Human), UniProt P48067)
# Assay: Radioligand binding assay using recombinant CHO cell membranes expressing human GlyT1
# Details: examples marked * tested as fumarate salts, read-out: radioligand binding Kiapp
# Sequence of human GlyT1c transporter (P48067 whole entry): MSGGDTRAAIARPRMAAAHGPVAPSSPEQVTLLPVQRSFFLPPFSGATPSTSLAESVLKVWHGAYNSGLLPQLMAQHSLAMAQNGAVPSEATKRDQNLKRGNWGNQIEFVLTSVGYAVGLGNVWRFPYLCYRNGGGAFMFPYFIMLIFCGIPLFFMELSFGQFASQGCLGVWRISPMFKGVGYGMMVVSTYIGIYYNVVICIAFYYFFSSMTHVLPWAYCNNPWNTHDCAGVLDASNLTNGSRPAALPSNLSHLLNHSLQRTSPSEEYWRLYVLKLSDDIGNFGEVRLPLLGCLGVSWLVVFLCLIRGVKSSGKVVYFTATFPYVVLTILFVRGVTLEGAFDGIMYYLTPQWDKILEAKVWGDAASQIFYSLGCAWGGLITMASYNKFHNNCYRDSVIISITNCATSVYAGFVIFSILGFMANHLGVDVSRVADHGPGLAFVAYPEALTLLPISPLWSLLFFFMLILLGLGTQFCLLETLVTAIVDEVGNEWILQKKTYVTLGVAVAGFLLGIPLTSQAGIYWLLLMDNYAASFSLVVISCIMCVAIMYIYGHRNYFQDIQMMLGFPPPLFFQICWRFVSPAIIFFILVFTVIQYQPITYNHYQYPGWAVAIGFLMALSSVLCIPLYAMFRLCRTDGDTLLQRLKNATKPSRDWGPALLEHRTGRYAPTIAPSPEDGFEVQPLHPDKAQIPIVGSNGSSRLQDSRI
row,pKi,Structure (SMILES)
1,≥ 8.00,"CNC1COc2cc(F)c(N3CC(NS(=O)(=O)c4cn(C)cn4)C3)cc2C1Cc1ccccc1 (single isomer, unassigned) [Example 15a, Cis-N-(1-(4-benzyl-7-fluoro-3-(methylamino)chroman-6-yl)azetidin-3-yl)-1-methyl-1H-imidazole-4-sulfonamide]"
2,≥ 8.00,"CNC1COc2cc(F)c(N3CC(NS(=O)(=O)c4cn(C)cn4)C3)cc2C1Cc1ccccc1 (single isomer, unassigned) [Example 15b, trans-N-(1-(4-benzyl-7-fluoro-3-(methylamino)chroman-6-yl)azetidin-3-yl)-1-methyl-1H-imidazole-4-sulfonamide]"
3,≥ 8.00,"CCCS(=O)(=O)NC1CN(c2cc3c(cc2F)OCC(NC)C3Cc2ccccc2)C1 (single isomer, unassigned) [Example 16a, Cis-N-(1-(4-benzyl-7-fluoro-3-(methylamino)chroman-6-yl)azetidin-3-yl)propane-1-sulfonamide]"
4,≥ 8.00,"CCCS(=O)(=O)NC1CN(c2cc3c(cc2F)OCC(NC)C3Cc2ccccc2)C1 (single isomer, unassigned) [Example 16b, trans-N-(1-(4-benzyl-7-fluoro-3-(methylamino)chroman-6-yl)azetidin-3-yl)propane-1-sulfonamide]"
5,≥ 8.00,"CNC1COc2cc(F)c(N3CC(NS(=O)(=O)c4cnn(C)c4)C3)cc2C1Cc1ccccc1 (single isomer, unassigned) [Example 17a, Cis-N-(1-(4-benzyl-7-fluoro-3-(methylamino)chroman-6-yl)azetidin-3-yl)-1-methyl-1H-pyrazole-4-sulfonamide]"
6,≥ 8.00,"CNC1COc2cc(F)c(N3CC(NS(=O)(=O)c4cnn(C)c4)C3)cc2C1Cc1ccccc1 (single isomer, unassigned) [Example 17b, trans-N-(1-(4-benzyl-7-fluoro-3-(methylamino)chroman-6-yl)azetidin-3-yl)-1-methyl-1H-pyrazole-4-sulfonamide]"
7,≥ 8.00,"CNC1COc2cc(F)c(N3CC(NS(=O)(=O)c4cn(C)nn4)C3)cc2C1Cc1ccccc1 (single isomer, unassigned) [Example 18a, Cis-N-(1-(4-benzyl-7-fluoro-3-(methylamino)chroman-6-yl)azetidin-3-yl)-1-methyl-1H-1,2,3-triazole-4-sulfonamide]"
8,≥ 8.00,"CNC1COc2cc(F)c(N3CC(NS(=O)(=O)c4cn(C)nn4)C3)cc2C1Cc1ccccc1 (single isomer, unassigned) [Example 18b, trans-N-(1-(4-benzyl-7-fluoro-3-(methylamino)chroman-6-yl)azetidin-3-yl)-1-methyl-1H-1,2,3-triazole-4-sulfonamide]"

# Second part, the compound before the results:
row,Structure (SMILES),pKi
1,"CCn1cc(S(=O)(=O)NC2CN(c3cc4c(cc3F)OC[C@@H](N3CCC3)[C@H]4Cc3ccccc3)C2)nn1 (relative stereo) [Example 7, Cis-N-(1-(3-(azetidin-1-yl)-4-benzyl-7-fluorochroman-6-yl)azetidin-3-yl)-1-ethyl-1H-1,2,3-triazole-4-sulfonamide]",≥ 7.00
2,"CCCS(=O)(=O)NC1CN(c2ccc3c(c2)[C@H](Cc2ccccc2)[C@H](N)CO3)C1 (relative stereo) [Example 20, Cis-N-(1-(3-amino-4-benzylchroman-6-yl)azetidin-3-yl)propane-1-sulfonamide]",≥ 7.00
3,"CCS(=O)(=O)NC1CN(c2cc3c(cc2F)OCC(NC)C3Cc2ccccc2)C1 (single isomer, unassigned) [Example 14a, Cis-N-(1-(4-benzyl-7-fluoro-3-(methylamino)chroman-6-yl)azetidin-3-yl)ethanesulfonamide]",≥ 7.00
4,"CCS(=O)(=O)NC1CN(c2cc3c(cc2F)OCC(NC)C3Cc2ccccc2)C1 (single isomer, unassigned) [Example 14b, trans-N-(1-(4-benzyl-7-fluoro-3-(methylamino)chroman-6-yl)azetidin-3-yl)ethanesulfonamide]",≥ 7.00
